Each block holds one molecule with its values, some of them ahead of it.
Columns and labels:
[1] = system: VCaP cells; assay: VCaP cell proliferation assay; assay type: cell-based, human; conditions: for antiproliferative effect with increasing R1881: 300 nmol/L bavdegalutamide or 1,000 nmol/L enzalutamide, co-treatment with increasing R1881, 5 days
[2] = Animal body weights during treatment in prostate cancer mouse models; assay type: in vivo, mice
[3] = system: enzalutamide-resistant VCaP xenograft tumors; assay: Tumor growth inhibition, enzalutamide-resistant VCaP xenograft model; assay type: in vivo, mice; conditions: 20 mg/kg oral every day for 28 days
[4] = system: human VCaP tumor xenografts; conditions: intact VCaP xenograft model; cited from earlier work
[5] = system: PSA; conditions: TM00298 model; cited from earlier work
[6] = system: TMPRSS–ERG; assay: ERG protein levels in tumors, enzalutamide-resistant VCaP model
[7] = system: patient-derived xenograft TM00298; conditions: TM00298 model; cited from earlier work
[8] = molecular target: G1–S phase transition 1 protein (Homo sapiens, UniProt P15170); assay: Neomorphic substrate degradation in Ramos cells: GSPT1; assay type: cell-based; conditions: increasing concentrations, 24 hours
[9] = system: nearly 4,000 detectable proteins in VCaP cells; assay: Proteomic screen in VCaP cells; assay type: cell-based, human; conditions: 10 nmol/L, 8 hours, filter >2× degradation, P <0.05
[10] = molecular target: CK1α (Homo sapiens, UniProt P48729+Q96SW2); assay: Neomorphic substrate degradation in Ramos cells: CK1α; assay type: cell-based
[11] = system: PSA; assay: Plasma PSA levels, patient-derived xenograft TM00298; assay type: in vivo, mice; conditions: 10 mg/kg oral every day for 20 days, 16 hours after last dose
[12] = system: VCaP xenografts; assay: Tumor growth inhibition, castrated VCaP xenograft model; assay type: in vivo, mice
[13] = system: rat prostate tissue; assay: Rat prostate involution study; assay type: in vivo, rats; conditions: 15 and 45 mg/kg oral every day for 10 days
[14] = molecular target: IKZF3 (Aiolos) (Homo sapiens, UniProt Q9UKT9); assay: Neomorphic substrate degradation in Ramos cells: IKZF3; assay type: cell-based; conditions: increasing concentrations, 24 hours
[15] = system: abiraterone-resistant tumors; conditions: 10 mg/kg oral every day for 19 days, phase III
[16] = system: PSA synthesis in LNCaP/AR cells; assay: PSA suppression assay in LNCaP/AR cells; assay type: cell-based; conditions: 48 h, read-out: IC50 (inhibition of PSA synthesis)
[17] = molecular target: IKZF1 (Ikaros) (Homo sapiens, UniProt Q13422); assay: Neomorphic substrate degradation in Ramos cells: IKZF1; assay type: cell-based; conditions: increasing concentrations, 24 hours
[18] = molecular target: SALL4 (Homo sapiens, UniProt Q96SW2+Q9UJQ4); assay: SALL4 degradation in SK-N-DZ cells; assay type: cell-based
[19] = system: AR; assay: AR degradation in CRBN-KO LNCaP and 22Rv1 cells with dox-inducible CRBN; assay type: cell-based
[20] = enzalutamide-resistant VCaP model
[21] = vs in vitro functional efficacy of 1 to 30 nmol/L

Sequence of SALL4 (Q9UJQ4 whole entry): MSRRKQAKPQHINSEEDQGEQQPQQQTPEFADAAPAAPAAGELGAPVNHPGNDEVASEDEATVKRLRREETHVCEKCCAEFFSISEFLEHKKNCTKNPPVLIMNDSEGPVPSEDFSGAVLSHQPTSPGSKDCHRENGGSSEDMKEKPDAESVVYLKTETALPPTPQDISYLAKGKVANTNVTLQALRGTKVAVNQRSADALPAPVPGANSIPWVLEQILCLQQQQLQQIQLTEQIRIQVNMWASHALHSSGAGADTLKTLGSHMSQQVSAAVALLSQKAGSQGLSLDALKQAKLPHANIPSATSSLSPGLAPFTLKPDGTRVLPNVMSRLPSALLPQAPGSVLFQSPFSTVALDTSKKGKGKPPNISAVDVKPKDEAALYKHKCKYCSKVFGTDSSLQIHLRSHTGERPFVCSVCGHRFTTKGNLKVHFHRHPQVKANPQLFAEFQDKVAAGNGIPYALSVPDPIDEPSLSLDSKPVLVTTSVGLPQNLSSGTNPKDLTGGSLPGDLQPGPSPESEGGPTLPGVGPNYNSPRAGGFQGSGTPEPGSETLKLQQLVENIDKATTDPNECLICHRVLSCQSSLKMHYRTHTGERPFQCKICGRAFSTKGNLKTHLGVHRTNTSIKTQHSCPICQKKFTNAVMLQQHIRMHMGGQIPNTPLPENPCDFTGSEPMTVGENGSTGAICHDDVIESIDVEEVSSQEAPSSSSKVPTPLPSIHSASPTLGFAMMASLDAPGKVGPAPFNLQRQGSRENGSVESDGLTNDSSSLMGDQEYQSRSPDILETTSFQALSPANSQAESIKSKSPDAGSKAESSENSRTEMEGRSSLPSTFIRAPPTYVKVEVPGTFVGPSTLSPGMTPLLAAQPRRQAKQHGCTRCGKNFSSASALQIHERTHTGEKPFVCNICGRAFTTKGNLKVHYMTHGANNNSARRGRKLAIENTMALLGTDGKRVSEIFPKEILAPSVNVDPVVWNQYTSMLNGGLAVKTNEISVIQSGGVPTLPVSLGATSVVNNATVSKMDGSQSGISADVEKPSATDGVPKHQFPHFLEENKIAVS
Sequence of SALL4 (Q96SW2 whole entry): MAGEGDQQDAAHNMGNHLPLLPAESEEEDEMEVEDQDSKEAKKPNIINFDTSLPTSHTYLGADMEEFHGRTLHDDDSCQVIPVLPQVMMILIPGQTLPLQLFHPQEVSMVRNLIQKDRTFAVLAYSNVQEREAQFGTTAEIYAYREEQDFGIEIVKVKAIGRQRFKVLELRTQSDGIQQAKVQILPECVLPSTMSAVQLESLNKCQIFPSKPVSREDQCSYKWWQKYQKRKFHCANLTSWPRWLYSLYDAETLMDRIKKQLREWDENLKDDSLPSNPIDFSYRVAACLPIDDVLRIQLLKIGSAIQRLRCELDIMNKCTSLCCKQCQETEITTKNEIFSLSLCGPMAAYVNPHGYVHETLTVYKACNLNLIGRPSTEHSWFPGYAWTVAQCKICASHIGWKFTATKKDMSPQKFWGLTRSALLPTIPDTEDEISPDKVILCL
Sequence of SALL4 (Q16531 whole entry partner): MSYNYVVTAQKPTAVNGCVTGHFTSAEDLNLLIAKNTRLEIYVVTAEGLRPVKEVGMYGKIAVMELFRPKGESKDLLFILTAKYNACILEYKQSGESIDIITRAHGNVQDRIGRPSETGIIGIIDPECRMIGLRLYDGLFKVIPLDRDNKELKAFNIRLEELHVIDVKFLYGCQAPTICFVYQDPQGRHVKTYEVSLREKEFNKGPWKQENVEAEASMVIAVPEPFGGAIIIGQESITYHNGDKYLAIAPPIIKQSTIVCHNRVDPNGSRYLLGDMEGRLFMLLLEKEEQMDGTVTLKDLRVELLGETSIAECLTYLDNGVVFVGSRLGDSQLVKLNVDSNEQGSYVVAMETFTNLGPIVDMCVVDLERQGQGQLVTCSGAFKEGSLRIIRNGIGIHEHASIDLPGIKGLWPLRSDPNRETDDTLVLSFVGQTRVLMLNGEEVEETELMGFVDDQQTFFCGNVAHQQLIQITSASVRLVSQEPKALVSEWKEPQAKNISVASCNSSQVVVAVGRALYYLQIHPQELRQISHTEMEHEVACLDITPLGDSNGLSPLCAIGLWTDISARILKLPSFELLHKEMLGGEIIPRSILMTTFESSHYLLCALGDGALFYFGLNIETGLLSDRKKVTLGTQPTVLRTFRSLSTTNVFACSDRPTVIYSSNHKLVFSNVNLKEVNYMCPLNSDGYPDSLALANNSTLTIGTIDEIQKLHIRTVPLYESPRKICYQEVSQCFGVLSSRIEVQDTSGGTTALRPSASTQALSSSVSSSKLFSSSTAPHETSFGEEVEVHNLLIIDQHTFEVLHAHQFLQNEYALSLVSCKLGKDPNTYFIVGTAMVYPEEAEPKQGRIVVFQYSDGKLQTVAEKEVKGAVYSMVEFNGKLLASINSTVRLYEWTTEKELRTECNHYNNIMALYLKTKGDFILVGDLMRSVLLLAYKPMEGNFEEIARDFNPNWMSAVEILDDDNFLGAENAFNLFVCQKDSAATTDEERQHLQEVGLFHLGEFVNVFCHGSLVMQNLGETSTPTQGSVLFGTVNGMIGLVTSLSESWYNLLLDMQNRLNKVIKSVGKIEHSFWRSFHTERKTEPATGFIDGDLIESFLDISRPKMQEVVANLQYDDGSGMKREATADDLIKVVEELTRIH
Sequence of CK1α (P48729 whole entry): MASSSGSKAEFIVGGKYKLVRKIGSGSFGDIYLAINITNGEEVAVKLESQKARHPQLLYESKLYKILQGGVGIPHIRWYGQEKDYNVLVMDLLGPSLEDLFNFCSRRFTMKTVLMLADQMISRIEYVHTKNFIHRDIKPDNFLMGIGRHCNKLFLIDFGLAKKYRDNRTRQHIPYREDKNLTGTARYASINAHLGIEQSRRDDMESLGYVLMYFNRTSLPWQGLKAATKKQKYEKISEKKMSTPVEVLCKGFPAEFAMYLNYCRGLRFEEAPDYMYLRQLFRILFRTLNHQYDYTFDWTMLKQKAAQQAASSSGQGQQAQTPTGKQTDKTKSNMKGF
Sequence of CK1α (Q96SW2 whole entry): as the sequence (Q96SW2 whole entry) above
Sequence of CK1α (Q16531 whole entry partner): as the sequence (Q16531 whole entry partner) above
Sequence of IKZF1 (Ikaros) (Q96SW2 whole entry partner): as the sequence (Q96SW2 whole entry) above
Sequence of IKZF1 (Ikaros) (Q16531 whole entry partner): as the sequence (Q16531 whole entry partner) above
Sequence of IKZF1 (Ikaros) (Q13422 whole entry): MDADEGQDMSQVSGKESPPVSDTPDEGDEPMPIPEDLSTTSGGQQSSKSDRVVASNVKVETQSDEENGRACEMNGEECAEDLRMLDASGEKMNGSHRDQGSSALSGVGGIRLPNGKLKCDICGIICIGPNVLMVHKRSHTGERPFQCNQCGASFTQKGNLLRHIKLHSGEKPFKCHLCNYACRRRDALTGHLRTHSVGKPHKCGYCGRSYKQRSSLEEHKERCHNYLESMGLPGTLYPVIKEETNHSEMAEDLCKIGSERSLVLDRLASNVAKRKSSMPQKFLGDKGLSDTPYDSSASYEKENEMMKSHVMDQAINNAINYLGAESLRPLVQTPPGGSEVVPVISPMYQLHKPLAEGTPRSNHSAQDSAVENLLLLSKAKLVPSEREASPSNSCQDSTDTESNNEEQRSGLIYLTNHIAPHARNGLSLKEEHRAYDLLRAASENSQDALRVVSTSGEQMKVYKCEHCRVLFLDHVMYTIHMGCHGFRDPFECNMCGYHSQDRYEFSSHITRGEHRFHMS
Sequence of IKZF3 (Aiolos) (Q96SW2 whole entry partner): as the sequence (Q96SW2 whole entry) above
Sequence of IKZF3 (Aiolos) (Q16531 whole entry partner): as the sequence (Q16531 whole entry partner) above
Sequence of IKZF3 (Aiolos) (Q9UKT9 whole entry): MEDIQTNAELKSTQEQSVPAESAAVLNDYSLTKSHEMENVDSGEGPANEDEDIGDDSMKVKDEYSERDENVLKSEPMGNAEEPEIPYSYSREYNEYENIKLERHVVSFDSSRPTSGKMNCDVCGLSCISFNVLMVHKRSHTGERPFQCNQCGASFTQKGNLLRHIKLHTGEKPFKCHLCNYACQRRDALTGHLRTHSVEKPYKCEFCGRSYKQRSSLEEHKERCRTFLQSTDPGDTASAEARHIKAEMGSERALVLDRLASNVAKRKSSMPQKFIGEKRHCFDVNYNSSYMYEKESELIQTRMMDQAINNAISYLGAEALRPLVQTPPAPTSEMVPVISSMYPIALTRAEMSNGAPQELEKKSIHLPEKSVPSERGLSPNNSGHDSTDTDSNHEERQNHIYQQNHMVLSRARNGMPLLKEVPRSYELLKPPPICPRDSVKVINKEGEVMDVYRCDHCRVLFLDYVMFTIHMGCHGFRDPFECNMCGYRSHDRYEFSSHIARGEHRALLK
Sequence of G1–S phase transition 1 protein (Q16531 whole entry): as the sequence (Q16531 whole entry partner) above
Sequence of G1–S phase transition 1 protein (Q96SW2 whole entry, further chain): as the sequence (Q96SW2 whole entry) above
Sequence of G1–S phase transition 1 protein (P15170 whole entry): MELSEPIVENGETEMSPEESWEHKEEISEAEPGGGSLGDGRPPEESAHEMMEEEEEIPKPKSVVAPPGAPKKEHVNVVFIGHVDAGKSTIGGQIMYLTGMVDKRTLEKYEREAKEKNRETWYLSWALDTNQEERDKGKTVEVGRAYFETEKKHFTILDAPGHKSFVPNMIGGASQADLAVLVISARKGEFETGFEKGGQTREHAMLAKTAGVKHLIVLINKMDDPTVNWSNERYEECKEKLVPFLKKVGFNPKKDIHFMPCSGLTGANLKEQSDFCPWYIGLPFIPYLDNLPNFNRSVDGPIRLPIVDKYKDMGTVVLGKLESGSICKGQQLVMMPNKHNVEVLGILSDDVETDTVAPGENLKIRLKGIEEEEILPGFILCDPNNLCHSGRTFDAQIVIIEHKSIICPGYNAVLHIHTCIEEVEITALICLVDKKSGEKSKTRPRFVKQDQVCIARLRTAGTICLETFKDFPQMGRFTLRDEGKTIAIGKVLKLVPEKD

Structure (SMILES): C[C@]1(O)CC[C@H]2[C@@H]3CCC4=CC(=O)CCC4=C3C=C[C@@]21C [R1881, reference compound]
- effect of R1881 alone on proliferation ([1]; VCaP cells, charcoal-stripped serum): increased the proliferation of VCaP cells

- reduction in AR target gene TMPRSS–ERG in tumors ([6]; 20 mg/kg enzalutamide): this effect did not occur
Structure (SMILES): CNC(=O)c1ccc(N2C(=S)N(c3ccc(C#N)c(C(F)(F)F)c3)C(=O)C2(C)C)cc1F [Enzalutamide, reference compound]
- antiproliferative effect with increasing R1881 ([1]; charcoal-stripped serum): antiproliferative only at R1881 concentrations <0.1 nmol/L
- body weights ([2]; castrated VCaP xenograft model): Body weights were maintained
- body weights [2, 20]: Body weights were maintained
- TGI [3]: TGI was not observed
- effect on tumor growth [4]: little to no effect on tumor growth
- reduction of PSA levels [5]: approximately 50%
- effect on tumor growth [7]: without affecting tumor growth

- G1–S phase transition 1 protein degradation [8]: did not lead to degradation
- IC50 ([1]; Homo sapiens, VCaP, 96 h, read-out: IC50 (inhibition of VCaP cell proliferation)): 20 nM
- CK1α degradation ([10]; Ramos cells, 300 to 1,000 nmol/L, 24 hours): only modest degradation
- window between AR and CK1α modulation [10, 21]: ≥ 10 ×
- IKZF3 (Aiolos) degradation [14]: did not lead to degradation
- IC50 [16]: 10 nM
- IKZF1 (Ikaros) degradation [17]: did not lead to degradation
- reduction in AR target gene TMPRSS–ERG in tumors ([6]; 3 or 10 mg/kg bavdegalutamide): Concomitant reductions
- SALL4 degradation ([18]; SK-N-DZ cells, 1,000 nmol/L, 24 hours): modestly degraded
- window between AR and SALL4 modulation [18, 21]: ≥ 10 ×
Structure (SMILES): N#Cc1ccc(O[C@H]2CC[C@H](NC(=O)c3ccc(N4CCC(CN5CCN(c6cc7c(cc6F)C(=O)N(C6CCC(=O)NC6=O)C7=O)CC5)CC4)nn3)CC2)cc1Cl (some centres unmarked) [Bavdegalutamide, N-[(1r,4r)-4-(3-chloro-4-cyanophenoxy)cyclohexyl]-6-[4-({4-[2-(2,6-dioxopiperidin-3-yl)-6-fluoro-1,3-dioxo-2,3-dihydro-1H-isoindol-5-yl]piperazin-1-yl}methyl)piperidin-1-yl]pyridazine-3-carboxamide]
- proteins degraded in proteomic screen [9]: degradation of only AR
- antiproliferative effect with increasing R1881 ([1]; charcoal-stripped serum): antiproliferative effects even in the presence of 1 nmol/L R1881
- reduction of circulating PSA levels [11]: 93%
- body weights ([2]; castrated VCaP xenograft model): Body weights were maintained
- body weights [2, 20]: Body weights were maintained
- TGI ([12]; 1 mg/kg oral): 101%
- TGI ([12]; 3 mg/kg oral): 109%
- rat prostate involution vs enzalutamide 100 mg/kg [13]: significantly higher activity than enzalutamide
- volume of abiraterone-resistant tumors [15]: reduced the volume of these abiraterone-resistant tumors
- cereblon dependence of AR degradation [19]: cereblon dependent

Source: paper PMC11962395 (Molecular Cancer Therapeutics, 2024)
